PMC5533298 (Structure (London, England : 1993), 2017)

How the values were obtained:
Test in all cases: absorbance of p-nitrophenol at […] nm
Format in all cases: biochemical
BdGUS = biological target: T1, BdGUS (Phocaeicola dorei, UniProt Z9QL54SLC8); conditions: 800 uM PNPG, optimal pH, 37 C, 50 mM HEPES
T1 sequence (Z9QL54SLC8 25-879): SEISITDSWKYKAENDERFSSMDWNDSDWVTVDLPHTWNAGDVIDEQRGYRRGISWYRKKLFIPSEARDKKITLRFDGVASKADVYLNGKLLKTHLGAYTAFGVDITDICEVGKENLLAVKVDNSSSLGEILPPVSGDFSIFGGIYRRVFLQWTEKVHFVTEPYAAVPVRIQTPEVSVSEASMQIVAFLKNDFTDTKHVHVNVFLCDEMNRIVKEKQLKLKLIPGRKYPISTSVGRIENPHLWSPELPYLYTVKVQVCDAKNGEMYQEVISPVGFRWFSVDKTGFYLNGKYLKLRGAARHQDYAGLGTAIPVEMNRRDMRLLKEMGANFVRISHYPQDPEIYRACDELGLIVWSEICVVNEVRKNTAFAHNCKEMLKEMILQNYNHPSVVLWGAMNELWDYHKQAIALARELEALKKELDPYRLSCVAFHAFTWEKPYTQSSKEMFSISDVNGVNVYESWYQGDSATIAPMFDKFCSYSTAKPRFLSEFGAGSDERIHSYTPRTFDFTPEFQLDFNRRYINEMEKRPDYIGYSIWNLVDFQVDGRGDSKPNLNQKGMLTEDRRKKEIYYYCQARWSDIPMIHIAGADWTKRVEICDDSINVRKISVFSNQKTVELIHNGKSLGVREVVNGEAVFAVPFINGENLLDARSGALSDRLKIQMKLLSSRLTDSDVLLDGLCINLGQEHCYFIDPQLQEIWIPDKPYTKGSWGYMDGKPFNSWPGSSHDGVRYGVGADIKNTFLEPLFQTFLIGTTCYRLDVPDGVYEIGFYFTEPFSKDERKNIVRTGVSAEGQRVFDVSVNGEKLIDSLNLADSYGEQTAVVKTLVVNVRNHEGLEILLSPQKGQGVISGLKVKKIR

PmGUS = biological target: T2, PmGUS (Parabacteroides merdae, UniProt K5ZWV5); conditions: 800 uM PNPG, optimal pH, 37 C, 50 mM HEPES
T2 sequence (K5ZWV5 20-826): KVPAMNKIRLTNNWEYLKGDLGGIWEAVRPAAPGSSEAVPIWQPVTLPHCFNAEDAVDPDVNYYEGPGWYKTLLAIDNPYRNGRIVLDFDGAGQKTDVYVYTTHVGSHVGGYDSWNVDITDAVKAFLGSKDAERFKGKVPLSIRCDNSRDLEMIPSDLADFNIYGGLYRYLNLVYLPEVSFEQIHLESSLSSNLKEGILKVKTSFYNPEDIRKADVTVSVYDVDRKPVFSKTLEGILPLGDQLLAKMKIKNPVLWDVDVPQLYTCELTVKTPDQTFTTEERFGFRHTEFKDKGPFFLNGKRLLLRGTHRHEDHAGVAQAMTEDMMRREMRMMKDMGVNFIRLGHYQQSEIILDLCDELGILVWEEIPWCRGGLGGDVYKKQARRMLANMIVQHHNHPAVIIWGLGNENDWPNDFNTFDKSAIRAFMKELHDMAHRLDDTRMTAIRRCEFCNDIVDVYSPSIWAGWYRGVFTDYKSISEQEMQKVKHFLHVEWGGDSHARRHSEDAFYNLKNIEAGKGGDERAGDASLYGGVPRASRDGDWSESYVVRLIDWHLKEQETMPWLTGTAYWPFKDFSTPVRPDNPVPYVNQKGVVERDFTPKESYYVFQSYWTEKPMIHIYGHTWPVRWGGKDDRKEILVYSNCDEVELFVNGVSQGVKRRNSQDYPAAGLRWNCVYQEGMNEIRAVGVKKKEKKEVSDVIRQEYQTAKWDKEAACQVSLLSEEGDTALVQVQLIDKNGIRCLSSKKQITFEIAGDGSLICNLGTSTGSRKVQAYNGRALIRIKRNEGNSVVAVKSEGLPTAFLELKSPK

BuGUS = biological target: T3, BuGUS (Bacteroides uniformis, UniProt A0A078SUX9); conditions: 800 uM PNPG, optimal pH, 37 C, 50 mM HEPES
T3 sequence (A0A078SUX9 32-886 limits assumed): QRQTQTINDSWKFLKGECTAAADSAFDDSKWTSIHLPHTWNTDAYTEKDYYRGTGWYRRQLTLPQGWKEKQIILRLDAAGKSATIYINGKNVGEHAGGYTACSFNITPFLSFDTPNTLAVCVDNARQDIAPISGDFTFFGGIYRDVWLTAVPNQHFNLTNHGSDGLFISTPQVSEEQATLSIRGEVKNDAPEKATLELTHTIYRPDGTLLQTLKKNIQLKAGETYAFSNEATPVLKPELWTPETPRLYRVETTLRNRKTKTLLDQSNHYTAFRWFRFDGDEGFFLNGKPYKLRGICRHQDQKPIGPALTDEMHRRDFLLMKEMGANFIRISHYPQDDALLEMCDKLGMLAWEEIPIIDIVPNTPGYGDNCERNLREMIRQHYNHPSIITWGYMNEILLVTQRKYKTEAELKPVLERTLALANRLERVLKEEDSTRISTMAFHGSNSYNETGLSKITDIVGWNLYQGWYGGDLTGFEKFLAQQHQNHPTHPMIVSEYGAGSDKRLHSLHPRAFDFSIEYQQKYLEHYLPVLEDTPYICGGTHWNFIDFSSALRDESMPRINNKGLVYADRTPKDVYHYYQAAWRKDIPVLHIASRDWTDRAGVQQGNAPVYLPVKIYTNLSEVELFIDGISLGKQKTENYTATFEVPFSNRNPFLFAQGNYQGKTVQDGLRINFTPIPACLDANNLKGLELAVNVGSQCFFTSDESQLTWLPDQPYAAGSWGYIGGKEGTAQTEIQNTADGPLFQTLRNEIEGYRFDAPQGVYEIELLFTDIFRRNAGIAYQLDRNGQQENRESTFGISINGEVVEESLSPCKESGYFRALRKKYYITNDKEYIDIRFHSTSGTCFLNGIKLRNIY

EcGUS = EcGUS (Escherichia coli, UniProt P05804); conditions: 800 uM PNPG, optimal pH (broad, up to 7.4), 37 C, 50 mM HEPES
Chain of EcGUS (P05804 whole entry): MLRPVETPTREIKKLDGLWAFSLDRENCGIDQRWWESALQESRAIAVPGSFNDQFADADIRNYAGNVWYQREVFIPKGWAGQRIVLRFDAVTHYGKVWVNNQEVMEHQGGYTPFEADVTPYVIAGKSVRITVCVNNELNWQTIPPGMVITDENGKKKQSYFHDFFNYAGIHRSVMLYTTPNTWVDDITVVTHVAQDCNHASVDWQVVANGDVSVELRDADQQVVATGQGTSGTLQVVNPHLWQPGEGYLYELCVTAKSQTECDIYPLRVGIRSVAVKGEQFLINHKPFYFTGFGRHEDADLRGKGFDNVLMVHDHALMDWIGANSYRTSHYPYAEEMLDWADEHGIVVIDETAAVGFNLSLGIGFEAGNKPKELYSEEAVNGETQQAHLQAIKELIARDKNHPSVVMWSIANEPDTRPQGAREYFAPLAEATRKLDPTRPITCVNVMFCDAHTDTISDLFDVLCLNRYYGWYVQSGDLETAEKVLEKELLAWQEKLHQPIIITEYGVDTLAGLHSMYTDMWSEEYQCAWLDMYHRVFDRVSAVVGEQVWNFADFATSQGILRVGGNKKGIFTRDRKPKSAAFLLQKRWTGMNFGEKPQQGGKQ

BfGUS = BfGUS (Bacteroides fragilis, UniProt Q5LIC7); conditions: 800 uM PNPG, optimal pH, 37 C, 50 mM HEPES
Chain of BfGUS (Q5LIC7 38-693): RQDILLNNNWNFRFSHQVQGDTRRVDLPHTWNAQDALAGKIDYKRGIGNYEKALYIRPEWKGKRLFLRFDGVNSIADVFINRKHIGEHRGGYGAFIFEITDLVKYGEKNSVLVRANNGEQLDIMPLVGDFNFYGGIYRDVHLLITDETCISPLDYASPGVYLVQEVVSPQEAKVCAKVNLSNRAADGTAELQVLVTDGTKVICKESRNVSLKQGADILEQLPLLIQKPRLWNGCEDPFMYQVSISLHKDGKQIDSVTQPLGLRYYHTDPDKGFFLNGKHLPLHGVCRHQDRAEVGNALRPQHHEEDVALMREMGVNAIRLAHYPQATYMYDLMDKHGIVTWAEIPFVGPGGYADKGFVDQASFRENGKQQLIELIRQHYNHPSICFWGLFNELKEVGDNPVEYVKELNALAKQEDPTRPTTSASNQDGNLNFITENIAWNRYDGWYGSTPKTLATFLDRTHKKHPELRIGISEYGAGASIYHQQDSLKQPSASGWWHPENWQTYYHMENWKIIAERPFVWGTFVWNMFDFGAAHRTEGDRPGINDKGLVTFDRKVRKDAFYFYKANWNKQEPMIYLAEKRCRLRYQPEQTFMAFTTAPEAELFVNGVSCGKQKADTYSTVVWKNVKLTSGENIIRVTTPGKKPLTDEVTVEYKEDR

EeGUS = biological target: T4, EeGUS (Lachnospira eligens, UniProt C4Z6Z2); conditions: 800 uM PNPG, pH 6.5, 37 C, 50 mM HEPES
T4 sequence (C4Z6Z2 1-611): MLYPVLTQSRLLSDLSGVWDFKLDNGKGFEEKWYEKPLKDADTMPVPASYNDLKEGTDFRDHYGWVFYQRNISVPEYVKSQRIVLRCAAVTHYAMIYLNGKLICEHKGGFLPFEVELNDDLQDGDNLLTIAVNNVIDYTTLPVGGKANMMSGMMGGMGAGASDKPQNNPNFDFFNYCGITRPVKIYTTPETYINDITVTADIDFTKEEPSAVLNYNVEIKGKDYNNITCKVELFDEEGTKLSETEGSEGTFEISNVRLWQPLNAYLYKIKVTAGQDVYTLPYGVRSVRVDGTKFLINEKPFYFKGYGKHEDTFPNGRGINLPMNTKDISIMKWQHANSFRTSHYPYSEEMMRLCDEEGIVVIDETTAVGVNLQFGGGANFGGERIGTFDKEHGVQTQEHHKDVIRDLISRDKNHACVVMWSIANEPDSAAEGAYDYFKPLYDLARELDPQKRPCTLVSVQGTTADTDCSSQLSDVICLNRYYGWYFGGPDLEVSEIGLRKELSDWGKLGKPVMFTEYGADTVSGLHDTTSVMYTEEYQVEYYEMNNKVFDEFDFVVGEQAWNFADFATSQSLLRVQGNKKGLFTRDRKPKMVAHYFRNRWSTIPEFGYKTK

## O=C(O)[C@H]1O[C@@H](Oc2ccc([N+](=O)[O-])cc2)[C@H](O)[C@@H](O)[C@@H]1O [PNPG]
BdGUS
  absorbance of p-nitrophenol at 410 nm: PNPG kinetic studies with each enzyme at its optimum pH
PmGUS
  absorbance of p-nitrophenol at 410 nm: PNPG kinetic studies with each enzyme at its optimum pH
BuGUS
  absorbance of p-nitrophenol at 410 nm: PNPG kinetic studies with each enzyme at its optimum pH
EcGUS
  absorbance of p-nitrophenol at 410 nm: E. coli and Eu. eligens GUS are remarkably efficient at PNPG processing
BfGUS
  absorbance of p-nitrophenol at 410 nm: PNPG kinetic studies with each enzyme at its optimum pH
EeGUS
  absorbance of p-nitrophenol at 410 nm: E. coli and Eu. eligens GUS are remarkably efficient at PNPG processing
